Test results published in ChEMBL document CHEMBL4610037, “Discovery of 5-(pyridin-3-yl)-1H-indole-4,7-diones as indoleamine 2,3-dioxygenase 1 (IDO1) inhibitors” (Bioorg Med Chem Lett, 2020).
Active and inactive are the calls of the source. The rule behind the calls is not given here.

Experiments:
[1] = target: T1, Indoleamine 2,3-dioxygenase 1 (Homo sapiens, UniProt P14902); test: Inhibition of recombinant human IDO1 expressed in Escherichia coli
Target sequence in this assay (P14902 whole entry): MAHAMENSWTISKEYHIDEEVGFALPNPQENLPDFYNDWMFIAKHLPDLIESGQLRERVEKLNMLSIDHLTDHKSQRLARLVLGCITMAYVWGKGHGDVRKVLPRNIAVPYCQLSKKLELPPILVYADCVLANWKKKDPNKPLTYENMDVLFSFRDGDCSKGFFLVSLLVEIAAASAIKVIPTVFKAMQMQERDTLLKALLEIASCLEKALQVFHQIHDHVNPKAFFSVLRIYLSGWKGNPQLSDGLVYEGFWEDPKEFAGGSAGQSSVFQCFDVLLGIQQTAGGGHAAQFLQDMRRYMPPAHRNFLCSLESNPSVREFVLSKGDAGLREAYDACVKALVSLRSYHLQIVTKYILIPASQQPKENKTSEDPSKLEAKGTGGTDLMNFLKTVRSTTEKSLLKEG

[2] = target: T1, Indoleamine 2,3-dioxygenase 1; test: Inhibition of recombinant human IDO1 expressed in Escherichia coli at 10 uM relative to control
Target sequence in this assay (P14902 whole entry, looked up): as the sequence (P14902 whole entry) above

[3] = target: T1, Indoleamine 2,3-dioxygenase 1; test: Inhibition of IFNgamma-stimulated IDO1 in human HeLa cells; type: cell-based
Target sequence in this assay (P14902 whole entry): as above

[4] = target: T1, Indoleamine 2,3-dioxygenase 1; test: Reversible inhibition of recombinant human IDO1 expressed in Escherichia coli at 100 uM using L-tryptophan as substrate
Target sequence in this assay (P14902 whole entry, looked up): as the sequence (P14902 whole entry) above

[5] = target: T1, Indoleamine 2,3-dioxygenase 1; test: Competitive inhibition of recombinant human IDO1 expressed in Escherichia coli at 1 to 4 uM using L-tryptophan as substrate
Target sequence in this assay (P14902 whole entry, looked up): as the sequence (P14902 whole entry) above

Compound | IC50 [1] [nM] | inhibition [2] [%] | EC50 [3] [nM] | inhibition [4] | inhibition [5]
CC(=O)NCCc1c[nH]c2c1C(=O)C(c1cccnc1)=CC2=O | 1360 | 57.5 | > 10000 |  | 
O=C1C=C(c2cccnc2)C(=O)c2c(CCNC3CCCCC3)c[nH]c21 | 1500 | 65 | 2540 |  | 
O=C1C=C(c2cccnc2)C(=O)c2c(CCNCCc3ccccc3)c[nH]c21 | 4000 | 68.3 | > 10000 |  | 
CC(C)(C)C(=O)NCCc1c[nH]c2c1C(=O)C(c1cccnc1)=CC2=O | 770 | 72.3 | 4600 |  | 
CCNCCc1c[nH]c2c1C(=O)C(c1cccnc1)=CC2=O | 160 | 81.7 | 3580 |  | 
CC(C)(C)CNCCc1c[nH]c2c1C(=O)C(c1cccnc1)=CC2=O | 560 | 79.5 | 4530 |  | 
CC(C)(C)OC(=O)NCCc1c[nH]c2c1C(=O)C(c1ccncc1)=CC2=O |  | 12.4 |  |  | 
CC(C)NCCc1c[nH]c2c1C(=O)C(c1cccnc1)=CC2=O | 510 | 63.8 | 2600 |  | 
COc1ccc(C2=CC(=O)c3[nH]cc(CCNC(=O)OC(C)(C)C)c3C2=O)cc1 |  | 34.5 |  |  | 
O=C(NCCc1c[nH]c2c1C(=O)C(c1cccnc1)=CC2=O)c1ccccc1 | 2080 | 65.7 | 5090 |  | 
CC(C)(C)OC(=O)NCCc1c[nH]c2c1C(=O)C(c1cccnc1)=CC2=O | 1900 | 66.5 | 5400 | Active | Active
CCCCNCCc1c[nH]c2c1C(=O)C(c1cccnc1)=CC2=O | 880 | 79.2 | 2720 |  | 
CN(C)CCc1c[nH]c2c1C(=O)C(c1cccnc1)=CC2=O | 500 | 71.3 | 4220 |  | 
Cc1ccc(C2=CC(=O)c3[nH]cc(CCNC(=O)OC(C)(C)C)c3C2=O)cc1 |  | 25.5 |  |  | 
CC(C)(C)OC(=O)NCCc1c[nH]c2c1C(=O)C(c1ccccc1F)=CC2=O | 2090 | 67.3 |  |  | 
CC(C)(C)OC(=O)NCCc1c[nH]c2c1C(=O)C(c1ccccc1)=CC2=O | 2940 | 56.4 |  |  | 
O=C1C=C(c2cccnc2)C(=O)c2c(CCNS(=O)(=O)c3ccccc3)c[nH]c21 | 3510 | 59.7 | 4920 |  | 
COc1ccccc1C1=CC(=O)c2[nH]cc(CCNC(=O)OC(C)(C)C)c2C1=O | 2380 | 63.2 |  |  | 
CCN(CC)CCc1c[nH]c2c1C(=O)C(c1cccnc1)=CC2=O | 2260 | 64.2 | > 10000 |  | 
NCCc1c[nH]c2c1C(=O)C(c1cccnc1)=CC2=O | 510 | 74.9 | 6620 |  | 
CC(C)(C)OC(=O)NCCc1c[nH]c2c1C(=O)C(c1ccc(F)cc1)=CC2=O |  | 43.3 |  |  | 
